From patent US9980943B2, “Methods of treating muscular dystrophy” (BOARD OF REGENTS OF THE NEVADA SYSTEM OF HIGHER EDUCATION, …, priority 2013, dated 2018) come the findings set out here.

Read-outs that look alike come from different tables or passages of the source.

In the test the test system is α7 integrin (LacZ reporter in α7LacZ+/− myoblasts). Description: qHTS of the LOPAC library and MLSMR (online screen, α7LacZ+/− myoblasts). The following applies: Mus musculus, Myoblast; for activation at 0.307 µM: read-out: Activity at 0.307 uM [%] **; for activation at 1.53 µM: read-out: Activity at 1.530 uM [%] **; for activation at 7.66 µM: read-out: Activity at 7.660 uM [%] **; for activation at 38.3 µM: read-out: Activity at 38.30uM [%] **; for EC50: read-out: Fit LogAC50 (converted).

Setting [1] is: 48 h, read-out: Fit Infinite Activity [%].

Take `NS(=O)(=O)c1ccc(NC(=O)c2cc(-c3ccccc3O)[nH]n2)cc1` [Compound 105]: the EC50 is 10 µM. For the setting “48 h”, the activation at 0.307 µM worked out at 15.4%, the activation at 1.53 µM is 17.9%, the activation at 7.66 µM is 44.2% and the activation at 38.3 µM was found to be 112%. For the same compound, under setting [1], the Emax worked out at 113%. Besides, the Emax (read-out: Max Response [%]) stood at 112%.
As to `Cc1cc(N2CCOCC2)nc2ccc(N/C(S)=N/Cc3ccc4c(c3)OCO4)cc12` [Compound 122], the EC50 was 10 µM. Also, for the setting “48 h”, the activation at 0.307 µM is 2.5%, the activation at 1.53 µM worked out at 11.5%, the activation at 7.66 µM is 54% and the activation at 38.3 µM was found to be 107%. The Emax under setting [1] was 128%. Besides, the Emax (read-out: Max Response [%]) was determined as 107%.
As to `O=C(CNC(=O)c1cccc(F)c1)N/N=C/c1cc(Br)ccc1OCc1ccccc1` [Compound 216], the EC50 was 10 µM. For the same compound, where the note is “48 h”, the activation at 0.307 µM amounted to 8.28%, the activation at 1.53 µM was determined as 20.8%, the activation at 7.66 µM is 44% and the activation at 38.3 µM worked out at 71.7%. In addition, the Emax under setting [1] came out at 94.4%. Further, for the setting “read-out: Max Response [%]”, the Emax is 71.7%.
As to `COc1ccc(CCNC(=O)c2cc(-c3cc(C)ccc3O)n[nH]2)cc1OC` [Compound 217], the EC50 was 10 µM. Also, for the setting “48 h”, the activation at 0.307 µM came out at 10.4%, the activation at 1.53 µM is 9.29%, the activation at 7.66 µM was determined as 27.5% and the activation at 38.3 µM worked out at 65.2%. Further, under setting [1], the Emax is 66.2%. Moreover, where the note is “read-out: Max Response [%]”, the Emax came to 65.2%.
With `COc1ccc(C(=O)N/C(=C/c2cccnc2)C(=O)N2CCN(C)CC2)cc1OC` [Compound 92], the EC50 was 4.47 µM. Moreover, under “48 h”, the activation at 0.307 µM was found to be 2.57%, the activation at 1.53 µM turned out to be 13.3%, the activation at 7.66 µM is 54.9% and the activation at 38.3 µM turned out to be 75%. The Emax under setting [1] worked out at 77%. Besides, the Emax (read-out: Max Response [%]) is 75%.
For `CN(C)CCNc1ncnc2sc(-c3ccccc3)cc12` [Compound 163], the EC50 was 10 µM. Further, where the note is “48 h”, the activation at 0.307 µM is -0.804%, the activation at 1.53 µM was -0.389%, the activation at 7.66 µM was determined as 19.4% and the activation at 38.3 µM turned out to be 78.1%. The Emax under setting [1] was determined as 78.3%. Further, the Emax (read-out: Max Response [%]) was 78.1%.
Regarding `COc1ccccc1OCC(=O)N/N=C1/C=C(C)CC1` [Compound 185], the EC50 was 10 µM. For the same compound, for the setting “48 h”, the activation at 0.307 µM is -21.6%, the activation at 1.53 µM is -24%, the activation at 7.66 µM worked out at 0% and the activation at 38.3 µM turned out to be 94.5%. The Emax under setting [1] amounted to 94.2%. Further, the Emax (read-out: Max Response [%]) turned out to be 94.5%.
On to `COC(=O)Cc1c(O)ccn(Cc2ccc3c(c2)OCO3)c1=O` [Compound 80], for which the EC50 is 10 µM. In addition, under “48 h”, the activation at 0.307 µM was -4.78%, the activation at 1.53 µM is 4.56%, the activation at 7.66 µM was found to be 65.9% and the activation at 38.3 µM was 146%. Besides, under setting [1], the Emax stood at 169%. Also, the Emax (read-out: Max Response [%]) amounted to 146%.
Regarding `CC1=C(C#N)C(=O)N(C)C(=O)/C1=C\NNc1ccc(F)cc1` [Compound 203], for the setting “48 h”, the activation at 0.307 µM was -46%, the activation at 1.53 µM was -36.9%, the activation at 7.66 µM was 8.42% and the activation at 38.3 µM came to 51.8%. Under setting [1], the Emax was determined as 59.4%. For the same compound, the Emax (read-out: Max Response [%]) stood at 51.8%.
Regarding `CCCn1c(-c2cc(OC)c(OC)c(OC)c2)nc2c1c(=O)[nH]c(=O)n2Cc1ccccc1` [Compound 54], the EC50 is 12.6 µM. In addition, under “48 h”, the activation at 0.307 µM amounted to 42%, the activation at 1.53 µM stood at 58.6%, the activation at 7.66 µM came out at 120% and the activation at 38.3 µM was determined as 213%. Under setting [1], the Emax came out at 262%. The Emax (read-out: Max Response [%]) came to 213%.
With `O=C(O)c1cc(/N=C/c2c(O)oc3ccccc3c2=O)ccc1O` [Compound 48], the EC50 was 7.08 µM. Besides, where the note is “48 h”, the activation at 0.307 µM is -32%, the activation at 1.53 µM is -23.3%, the activation at 7.66 µM worked out at 76.6% and the activation at 38.3 µM turned out to be 165%. Under setting [1], the Emax came to 179%.
For the compound `CC(C(=O)Nc1ccc(C#N)cc1)N(C)CC(=O)Nc1cccc(F)c1` (stereo not drawn) [Compound 186], for the setting “48 h”, the activation at 0.307 µM was -37.2%, the activation at 1.53 µM was -17.7%, the activation at 7.66 µM is 15.1% and the activation at 38.3 µM worked out at 37.2%. Further, the Emax under setting [1] came out at 48%. Besides, the Emax (read-out: Max Response [%]) worked out at 37.2%.
As to `O=C(NCCc1ccccc1)C1CCC(=O)N1C1CCCC1` (stereo not drawn) [Compound 104], the EC50 was 10 µM. For the same compound, under “48 h”, the activation at 0.307 µM was -6.49%, the activation at 1.53 µM is -11.7%, the activation at 7.66 µM is 27.3% and the activation at 38.3 µM was found to be 127%. Under setting [1], the Emax worked out at 128%. Besides, for the setting “read-out: Max Response [%]”, the Emax came to 127%.
On to `NC(=O)c1nsc(C(=O)N(c2ccccc2)C(C(=O)NCc2ccc(F)cc2)c2ccc(O)cc2)c1N` (stereo not drawn) [Compound 16], for which the EC50 was 2.24 µM. Further, under “48 h”, the activation at 0.307 µM is -30.2%, the activation at 1.53 µM was found to be 5.64%, the activation at 7.66 µM was determined as 58.2% and the activation at 38.3 µM was 75.2%. Besides, the Emax under setting [1] amounted to 77.5%.
Consider `Cn1ccc(C(=O)Nc2cccnc2Cl)n1` [Compound 140], for which the EC50 was 10 µM. Under “48 h”, the activation at 0.307 µM was -2.76%, the activation at 1.53 µM was -4.96%, the activation at 7.66 µM was 22.8% and the activation at 38.3 µM was 76%. In addition, the Emax under setting [1] came out at 77.9%. For the setting “read-out: Max Response [%]”, the Emax is 76%.
Turning to `CN(Cc1c(C(=O)N/N=C/c2cccc(F)c2)nnn1-c1nonc1N)c1ccccc1` [Compound 97], the EC50 was 5.62 µM. Under “48 h”, the activation at 0.307 µM stood at 1.91%, the activation at 1.53 µM was 1.37%, the activation at 7.66 µM was found to be 59.1% and the activation at 38.3 µM was found to be 79.3%. Also, the Emax under setting [1] was 79.8%. Under “read-out: Max Response [%]”, the Emax came to 79.3%.
For `COc1ccc(CCNC(=O)c2nn(C)c3c2CS(=O)(=O)c2ccccc2-3)cc1OC` [Compound 74], the EC50 was 4.47 µM. Besides, where the note is “48 h”, the activation at 0.307 µM is -22.8%, the activation at 1.53 µM was -9.73%, the activation at 7.66 µM came out at 56.7% and the activation at 38.3 µM stood at 84.2%. Also, the Emax under setting [1] is 86.2%. Also, the Emax (read-out: Max Response [%]) is 84.2%.
For `COc1ccc(CN2CCNC(=O)C2CC(=O)NCCc2c[nH]c3ccccc23)c(OC)c1` (stereo not drawn) [Compound 208], the EC50 was 10 µM. Also, for the setting “48 h”, the activation at 0.307 µM was -7.84%, the activation at 1.53 µM was -10.8%, the activation at 7.66 µM was determined as 16.4% and the activation at 38.3 µM was found to be 73.4%. For the same compound, the Emax under setting [1] came to 74.6%. Under “read-out: Max Response [%]”, the Emax turned out to be 73.4%.
`COc1ccc(Nc2ncnc3ccc(C)cc23)cc1` [Compound 58]: the EC50 is 3.55 µM. Besides, under “48 h”, the activation at 0.307 µM was -29.7%, the activation at 1.53 µM came to 3.35%, the activation at 7.66 µM amounted to 49.1% and the activation at 38.3 µM was 82.8%. For the same compound, the Emax under setting [1] was determined as 95.6%. Also, for the setting “read-out: Max Response [%]”, the Emax was 82.8%.
